US8969516B2, “Method of hydrolysis of peptide bond” (priority 2006, dated 2015)

Test: MALDI-TOF screening of Ni^2+ dependent hydrolysis in a combinatorial peptide library
Assay type: physicochemical
Details: Ni^2+ 2 mM, pH 8.2, 10 mM Tris, score=24/tm
Outline: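 Sublibraries of Ac-Gly-Ala-Ser/Thr-X-His-Z-Lys-Phe-Leu-NH2, randomized at Z and fixed at X, were hydrolyzed at 1 mM total peptide with 2 mM Ni2+ in 10 mM Tris, pH 8.2, at 37 °C or 45 °C. Cleavage was scored visually in MALDI-TOF spectra at 2, 4, 6 and 8 h.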

[1] = CH3CO-Gly-Ala-Ser-X-His-Z-Lys-Phe-Leu-NH2 library, 37° C.
[2] = CH3CO-Gly-Ala-Ser-X-His-Z-Lys-Phe-Leu-NH2 library, 45° C.
[3] = CH3CO-Gly-Ala-Thr-X-His-Z-Lys-Phe-Leu-NH2 library, 37° C.
[4] = CH3CO-Gly-Ala-Thr-X-His-Z-Lys-Phe-Leu-NH2 library, 45° C.

Substance | hydrolysis score from MALDI-TOF screening [1] | hydrolysis score from MALDI-TOF screening [2] | hydrolysis score from MALDI-TOF screening [3] | hydrolysis score from MALDI-TOF screening [4]
Ac-GASWHMKFL-NH2 [SWHM] | 0 (a score of 0 if no trace of the product of hydrolysis was seen after 8 hours of incubation) | 3 (a score of 3 for detection at 8 hours) |  | 
Ac-GASWHNKFL-NH2 [SWHN] | 0 (a score of 0 if no trace of the product of hydrolysis was seen after 8 hours of incubation) | 0 (a score of 0 if no trace of the product of hydrolysis was seen after 8 hours of incubation) |  | 
Ac-GASWHPKFL-NH2 [SWHP] | 0 (a score of 0 if no trace of the product of hydrolysis was seen after 8 hours of incubation) | 0 (a score of 0 if no trace of the product of hydrolysis was seen after 8 hours of incubation) |  | 
Ac-GASWHQKFL-NH2 [SWHQ] | 0 (a score of 0 if no trace of the product of hydrolysis was seen after 8 hours of incubation) | 0 (a score of 0 if no trace of the product of hydrolysis was seen after 8 hours of incubation) |  | 
Ac-GASWHRKFL-NH2 [SWHR] | 3 (a score of 3 for detection at 8 hours) | 6 (a score of 6 for detection at 4 hours) |  | 
Ac-GASWHSKFL-NH2 [SWHS] | 0 (a score of 0 if no trace of the product of hydrolysis was seen after 8 hours of incubation) | 0 (a score of 0 if no trace of the product of hydrolysis was seen after 8 hours of incubation) |  | 
Ac-GASWHTKFL-NH2 [SWHT] | 0 (a score of 0 if no trace of the product of hydrolysis was seen after 8 hours of incubation) | 0 (a score of 0 if no trace of the product of hydrolysis was seen after 8 hours of incubation) |  | 
Ac-GASWHVKFL-NH2 [SWHV] | 3 (a score of 3 for detection at 8 hours) | 12 (a score of 12, if it was seen to be partially hydrolysed at 2 hours) |  | 
Ac-GASWHWKFL-NH2 [SWHW] | 4 (a score of 4 for detection at 6 hours) | 6 (a score of 6 for detection at 4 hours) |  | 
Ac-GASWHYKFL-NH2 [SWHY] | 0 (a score of 0 if no trace of the product of hydrolysis was seen after 8 hours of incubation) | 6 (a score of 6 for detection at 4 hours) |  | 
Ac-GASYHAKFL-NH2 [SYHA] | 0 (a score of 0 if no trace of the product of hydrolysis was seen after 8 hours of incubation) | 0 (a score of 0 if no trace of the product of hydrolysis was seen after 8 hours of incubation) |  | 
Ac-GASYHDKFL-NH2 [SYHD] | 0 (a score of 0 if no trace of the product of hydrolysis was seen after 8 hours of incubation) | 0 (a score of 0 if no trace of the product of hydrolysis was seen after 8 hours of incubation) |  | 
Ac-GASYHEKFL-NH2 [SYHE] | 0 (a score of 0 if no trace of the product of hydrolysis was seen after 8 hours of incubation) | 0 (a score of 0 if no trace of the product of hydrolysis was seen after 8 hours of incubation) |  | 
Ac-GASYHFKFL-NH2 [SYHF] | 3 (a score of 3 for detection at 8 hours) | 4 (a score of 4 for detection at 6 hours) |  | 
Ac-GASYHGKFL-NH2 [SYHG] | 0 (a score of 0 if no trace of the product of hydrolysis was seen after 8 hours of incubation) | 0 (a score of 0 if no trace of the product of hydrolysis was seen after 8 hours of incubation) |  | 
Ac-GASYHHKFL-NH2 [SYHH] | 4 (a score of 4 for detection at 6 hours) | 4 (a score of 4 for detection at 6 hours) |  | 
Ac-GASYHIKFL-NH2 [SYHI] | 4 (a score of 4 for detection at 6 hours) | 6 (a score of 6 for detection at 4 hours) |  | 
Ac-GASYHKKFL-NH2 [SYHK] | 4 (a score of 4 for detection at 6 hours) | 6 (a score of 6 for detection at 4 hours) |  | 
Ac-GASYHLKFL-NH2 [SYHL] | 4 (a score of 4 for detection at 6 hours) | 6 (a score of 6 for detection at 4 hours) |  | 
Ac-GASYHMKFL-NH2 [SYHM] | 0 (a score of 0 if no trace of the product of hydrolysis was seen after 8 hours of incubation) | 0 (a score of 0 if no trace of the product of hydrolysis was seen after 8 hours of incubation) |  | 

Substance | hydrolysis score from MALDI-TOF screening [1] | hydrolysis score from MALDI-TOF screening [2] | hydrolysis score from MALDI-TOF screening [3] | hydrolysis score from MALDI-TOF screening [4]
Ac-GASYHNKFL-NH2 [SYHN] | 0 (a score of 0 if no trace of the product of hydrolysis was seen after 8 hours of incubation) | 0 (a score of 0 if no trace of the product of hydrolysis was seen after 8 hours of incubation) |  | 
Ac-GASYHPKFL-NH2 [SYHP] | 0 (a score of 0 if no trace of the product of hydrolysis was seen after 8 hours of incubation) | 0 (a score of 0 if no trace of the product of hydrolysis was seen after 8 hours of incubation) |  | 
Ac-GASYHQKFL-NH2 [SYHQ] | 0 (a score of 0 if no trace of the product of hydrolysis was seen after 8 hours of incubation) | 0 (a score of 0 if no trace of the product of hydrolysis was seen after 8 hours of incubation) |  | 
Ac-GASYHRKFL-NH2 [SYHR] | 4 (a score of 4 for detection at 6 hours) | 6 (a score of 6 for detection at 4 hours) |  | 
Ac-GASYHSKFL-NH2 [SYHS] | 0 (a score of 0 if no trace of the product of hydrolysis was seen after 8 hours of incubation) | 0 (a score of 0 if no trace of the product of hydrolysis was seen after 8 hours of incubation) |  | 
Ac-GASYHTKFL-NH2 [SYHT] | 0 (a score of 0 if no trace of the product of hydrolysis was seen after 8 hours of incubation) | 0 (a score of 0 if no trace of the product of hydrolysis was seen after 8 hours of incubation) |  | 
Ac-GASYHVKFL-NH2 [SYHV] | 6 (a score of 6 for detection at 4 hours) | 4 (a score of 4 for detection at 6 hours) |  | 
Ac-GASYHWKFL-NH2 [SYHW] | 6 (a score of 6 for detection at 4 hours) | 6 (a score of 6 for detection at 4 hours) |  | 
Ac-GASYHYKFL-NH2 [SYHY] | 3 (a score of 3 for detection at 8 hours) | 4 (a score of 4 for detection at 6 hours) |  | 
Ac-GATAHAKFL-NH2 [TAHA] |  |  | 0 (a score of 0 if no trace of the product of hydrolysis was seen after 8 hours of incubation) | 0 (a score of 0 if no trace of the product of hydrolysis was seen after 8 hours of incubation)
Ac-GATAHDKFL-NH2 [TAHD] |  |  | 0 (a score of 0 if no trace of the product of hydrolysis was seen after 8 hours of incubation) | 0 (a score of 0 if no trace of the product of hydrolysis was seen after 8 hours of incubation)
Ac-GATAHFKFL-NH2 [TAHF] |  |  | 0 (a score of 0 if no trace of the product of hydrolysis was seen after 8 hours of incubation) | 0 (a score of 0 if no trace of the product of hydrolysis was seen after 8 hours of incubation)
Ac-GATAHGKFL-NH2 [TAHG] |  |  | 0 (a score of 0 if no trace of the product of hydrolysis was seen after 8 hours of incubation) | 0 (a score of 0 if no trace of the product of hydrolysis was seen after 8 hours of incubation)
Ac-GATAHHKFL-NH2 [TAHH] |  |  | 0 (a score of 0 if no trace of the product of hydrolysis was seen after 8 hours of incubation) | 0 (a score of 0 if no trace of the product of hydrolysis was seen after 8 hours of incubation)
Ac-GATAHIKFL-NH2 [TAHI] |  |  | 0 (a score of 0 if no trace of the product of hydrolysis was seen after 8 hours of incubation) | 0 (a score of 0 if no trace of the product of hydrolysis was seen after 8 hours of incubation)
Ac-GATAHKKFL-NH2 [TAHK] |  |  | 0 (a score of 0 if no trace of the product of hydrolysis was seen after 8 hours of incubation) | 0 (a score of 0 if no trace of the product of hydrolysis was seen after 8 hours of incubation)
Ac-GATAHLKFL-NH2 [TAHL] |  |  | 0 (a score of 0 if no trace of the product of hydrolysis was seen after 8 hours of incubation) | 0 (a score of 0 if no trace of the product of hydrolysis was seen after 8 hours of incubation)
Ac-GATAHMKFL-NH2 [TAHM] |  |  | 0 (a score of 0 if no trace of the product of hydrolysis was seen after 8 hours of incubation) | 0 (a score of 0 if no trace of the product of hydrolysis was seen after 8 hours of incubation)
Ac-GATAHNKFL-NH2 [TAHN] |  |  | 0 (a score of 0 if no trace of the product of hydrolysis was seen after 8 hours of incubation) | 0 (a score of 0 if no trace of the product of hydrolysis was seen after 8 hours of incubation)
